Source: the NIST ThermoML archive (doi:10.1021/je025582+)

Details: Gas

FC(C(F)(F)F)C(F)(F)F [1,1,1,2,3,3,3-heptafluoropropane]
Details | mass density [kg/m3]
318.15 K, 122.2 kPa | 8.07
318.15 K, 167.7 kPa | 11.21
318.15 K, 230.1 kPa | 15.57
318.15 K, 312 kPa | 21.61
318.15 K, 421 kPa | 30.01
318.15 K, 561.3 kPa | 41.67
318.15 K, 734.2 kPa | 57.85
321.15 K, 123.2 kPa | 8.06
321.15 K, 169.3 kPa | 11.2
321.15 K, 232.2 kPa | 15.54
321.15 K, 315.4 kPa | 21.58
321.15 K, 425.5 kPa | 29.97
321.15 K, 568 kPa | 41.61
321.15 K, 744.1 kPa | 57.77
324.15 K, 124.4 kPa | 8.05
324.15 K, 170.9 kPa | 11.18
324.15 K, 234.2 kPa | 15.53
324.15 K, 318.6 kPa | 21.56
324.15 K, 430.2 kPa | 29.93
324.15 K, 574.9 kPa | 41.56
324.15 K, 754 kPa | 57.71
327.15 K, 125.7 kPa | 8.04
327.15 K, 172.6 kPa | 11.17
327.15 K, 236.2 kPa | 15.51
327.15 K, 321.9 kPa | 21.53
327.15 K, 434.8 kPa | 29.9
327.15 K, 581.5 kPa | 41.52
327.15 K, 763.9 kPa | 57.65
327.15 K, 982.1 kPa | 80.04
330.15 K, 126.8 kPa | 8.04
330.15 K, 132 kPa | 8.39
330.15 K, 174.3 kPa | 11.16
330.15 K, 181.5 kPa | 11.64
330.15 K, 238.5 kPa | 15.5
330.15 K, 248.3 kPa | 16.17
330.15 K, 325.2 kPa | 21.51
330.15 K, 338.6 kPa | 22.45
330.15 K, 439.5 kPa | 29.87
330.15 K, 457.7 kPa | 31.17
330.15 K, 588.3 kPa | 41.48
330.15 K, 611.2 kPa | 43.28
330.15 K, 774.3 kPa | 57.59
330.15 K, 803.6 kPa | 60.09
330.15 K, 998.1 kPa | 79.97
333.15 K, 128 kPa | 8.03
333.15 K, 175.9 kPa | 11.15
333.15 K, 240.7 kPa | 15.48
333.15 K, 328.6 kPa | 21.5
333.15 K, 444.3 kPa | 29.85
333.15 K, 595.3 kPa | 41.45
333.15 K, 784.6 kPa | 57.55
333.15 K, 1013.2 kPa | 79.91
336.15 K, 129 kPa | 8.03
336.15 K, 177.7 kPa | 11.14
336.15 K, 243.4 kPa | 15.47
336.15 K, 331.9 kPa | 21.49
336.15 K, 449.1 kPa | 29.83
336.15 K, 602.5 kPa | 41.42
336.15 K, 795.1 kPa | 57.52
336.15 K, 1029.1 kPa | 79.86
339.15 K, 130.1 kPa | 8.02
339.15 K, 179.3 kPa | 11.14
339.15 K, 245.7 kPa | 15.47
339.15 K, 334.9 kPa | 21.48
339.15 K, 454.4 kPa | 29.82
339.15 K, 609.6 kPa | 41.4
339.15 K, 804.6 kPa | 57.49
339.15 K, 1044.6 kPa | 79.83
339.15 K, 1310.5 kPa | 110.84
342.15 K, 131.3 kPa | 8.02
342.15 K, 181.1 kPa | 11.14
342.15 K, 248.2 kPa | 15.46
342.15 K, 338.6 kPa | 21.47
342.15 K, 459.3 kPa | 29.81
342.15 K, 616.9 kPa | 41.39
342.15 K, 815 kPa | 57.47
342.15 K, 1059.6 kPa | 79.8
342.15 K, 1333.9 kPa | 110.8
345.15 K, 132.5 kPa | 8.02
345.15 K, 182.4 kPa | 11.13
345.15 K, 250.2 kPa | 15.46
345.15 K, 341.9 kPa | 21.47
345.15 K, 464 kPa | 29.81
345.15 K, 624.2 kPa | 41.39
345.15 K, 826.2 kPa | 57.46
345.15 K, 1074.6 kPa | 79.79
345.15 K, 1358 kPa | 110.79
380.15 K, 269.4 kPa | 14.93
380.15 K, 369.5 kPa | 20.73
380.15 K, 503.4 kPa | 28.78
380.15 K, 683 kPa | 39.96
380.15 K, 918.3 kPa | 55.48
380.15 K, 1215.9 kPa | 77.04
380.15 K, 1582.9 kPa | 106.97
380.15 K, 2004.6 kPa | 148.52
380.15 K, 2446.1 kPa | 206.22
380.15 K, 2832.9 kPa | 286.34
